# Experimental data published in the kinase profiling compilation of Christmann-Franck et al. (2016).
# Columns and labels:
# Assay in all cases: radiometric filter-binding kinase assay, Kinase HotSpot
# Conditions in all cases: compound 0.5 µM; ATP 10 µM
# [1] = target: ABL2 (human) (UniProt P42684)
# [2] = target: ACVR1 (human) (UniProt Q04771)
# [3] = target: BRSK1 (human) (UniProt Q8TDC3)
# [4] = target: CAMK2D (human) (UniProt Q13557)
# [5] = target: CAMK2G (human) (UniProt Q13555)
# [6] = target: CDK3 CCNE1 (human) (UniProt Q00526+P24864)
# [7] = target: CDK6 CCND3 (human) (UniProt P30281+Q00534)
# [8] = target: CSNK1G2 (human) (UniProt P78368)
# [9] = target: DAPK2 (human) (UniProt Q9UIK4)
# [10] = target: DCLK2 (human) (UniProt Q8N568)
# [11] = target: EGFR (human) (UniProt P00533)
# [12] = target: EPHA3 (human) (UniProt P29320)
# [13] = target: EPHA5 (human) (UniProt P54756)
# [14] = target: ERBB4 (human) (UniProt Q15303)
# [15] = target: GSK3A (human) (UniProt P49840)
# [16] = target: HIPK4 (human) (UniProt Q8NE63)
# [17] = target: ITK (human) (UniProt Q08881)
# [18] = target: KDR (human) (UniProt P35968)
# [19] = target: MAP3K11 (human) (UniProt Q16584)
# [20] = target: MAP4K4 (human) (UniProt O95819)
# [21] = target: MAPK12 (human) (UniProt P53778)
# [22] = target: MARK3 (human) (UniProt P27448)
# [23] = target: MYLK2 (human) (UniProt Q9H1R3)
# [24] = target: MYO3B (human) (UniProt Q8WXR4)
# [25] = target: NEK1 (human) (UniProt Q96PY6)
# [26] = target: NEK2 (human) (UniProt P51955)
# [27] = target: NLK (human) (UniProt Q9UBE8)
# [28] = target: PAK4 (human) (UniProt O96013)
# [29] = target: PASK (human) (UniProt Q96RG2)
# [30] = target: PBK (human) (UniProt Q96KB5)
# [31] = target: PRKD2 (human) (UniProt Q9BZL6)
# [32] = target: PRKG2 (human) (UniProt Q13237)
# [33] = target: RPS6KA1 KD1 KD2 (human) (UniProt Q15418)
# [34] = target: SGK2 (human) (UniProt Q9HBY8)
# [35] = target: SRPK1 (human) (UniProt Q96SB4)
# [36] = target: STK10 (human) (UniProt O94804)
# [37] = target: STK38 (human) (UniProt Q15208)
# [38] = target: TAOK1 (human) (UniProt Q7L7X3)
# [39] = target: TAOK3 (human) (UniProt Q9H2K8)
# [40] = target: TEC (human) (UniProt P42680)
# [41] = target: TGFBR2 (human) (UniProt P37173)
# [42] = target: TLK2 (human) (UniProt Q86UE8)
# NLK (human), sequence (Q9UBE8 whole entry, looked up): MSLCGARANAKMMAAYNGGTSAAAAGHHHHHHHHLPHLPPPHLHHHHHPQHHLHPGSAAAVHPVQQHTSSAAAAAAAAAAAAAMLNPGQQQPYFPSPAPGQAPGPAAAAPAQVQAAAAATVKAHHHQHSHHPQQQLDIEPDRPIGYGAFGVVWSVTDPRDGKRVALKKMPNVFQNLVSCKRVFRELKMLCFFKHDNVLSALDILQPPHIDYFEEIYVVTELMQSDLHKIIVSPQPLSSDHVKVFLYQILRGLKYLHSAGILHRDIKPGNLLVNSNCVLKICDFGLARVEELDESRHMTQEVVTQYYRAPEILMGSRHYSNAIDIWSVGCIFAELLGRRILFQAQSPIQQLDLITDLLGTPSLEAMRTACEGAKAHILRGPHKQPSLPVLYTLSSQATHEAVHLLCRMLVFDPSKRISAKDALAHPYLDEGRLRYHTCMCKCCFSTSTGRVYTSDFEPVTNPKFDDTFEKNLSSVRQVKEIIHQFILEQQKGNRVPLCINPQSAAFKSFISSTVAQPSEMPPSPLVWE
# GSK3A (human), sequence (P49840 whole entry, looked up): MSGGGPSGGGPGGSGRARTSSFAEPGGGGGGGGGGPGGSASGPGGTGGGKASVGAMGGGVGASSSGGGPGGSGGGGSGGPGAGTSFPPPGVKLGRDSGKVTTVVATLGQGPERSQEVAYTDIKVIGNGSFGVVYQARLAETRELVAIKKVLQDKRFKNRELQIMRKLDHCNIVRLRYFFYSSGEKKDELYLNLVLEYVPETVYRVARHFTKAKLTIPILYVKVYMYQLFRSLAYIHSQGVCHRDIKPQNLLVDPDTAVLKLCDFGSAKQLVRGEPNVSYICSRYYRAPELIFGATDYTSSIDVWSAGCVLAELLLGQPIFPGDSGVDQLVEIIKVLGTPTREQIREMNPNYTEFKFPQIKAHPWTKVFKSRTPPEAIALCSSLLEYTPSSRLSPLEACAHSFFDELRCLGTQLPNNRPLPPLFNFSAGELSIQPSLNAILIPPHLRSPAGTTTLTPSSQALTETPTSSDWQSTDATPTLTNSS
# EGFR (human), sequence (P00533 whole entry, looked up): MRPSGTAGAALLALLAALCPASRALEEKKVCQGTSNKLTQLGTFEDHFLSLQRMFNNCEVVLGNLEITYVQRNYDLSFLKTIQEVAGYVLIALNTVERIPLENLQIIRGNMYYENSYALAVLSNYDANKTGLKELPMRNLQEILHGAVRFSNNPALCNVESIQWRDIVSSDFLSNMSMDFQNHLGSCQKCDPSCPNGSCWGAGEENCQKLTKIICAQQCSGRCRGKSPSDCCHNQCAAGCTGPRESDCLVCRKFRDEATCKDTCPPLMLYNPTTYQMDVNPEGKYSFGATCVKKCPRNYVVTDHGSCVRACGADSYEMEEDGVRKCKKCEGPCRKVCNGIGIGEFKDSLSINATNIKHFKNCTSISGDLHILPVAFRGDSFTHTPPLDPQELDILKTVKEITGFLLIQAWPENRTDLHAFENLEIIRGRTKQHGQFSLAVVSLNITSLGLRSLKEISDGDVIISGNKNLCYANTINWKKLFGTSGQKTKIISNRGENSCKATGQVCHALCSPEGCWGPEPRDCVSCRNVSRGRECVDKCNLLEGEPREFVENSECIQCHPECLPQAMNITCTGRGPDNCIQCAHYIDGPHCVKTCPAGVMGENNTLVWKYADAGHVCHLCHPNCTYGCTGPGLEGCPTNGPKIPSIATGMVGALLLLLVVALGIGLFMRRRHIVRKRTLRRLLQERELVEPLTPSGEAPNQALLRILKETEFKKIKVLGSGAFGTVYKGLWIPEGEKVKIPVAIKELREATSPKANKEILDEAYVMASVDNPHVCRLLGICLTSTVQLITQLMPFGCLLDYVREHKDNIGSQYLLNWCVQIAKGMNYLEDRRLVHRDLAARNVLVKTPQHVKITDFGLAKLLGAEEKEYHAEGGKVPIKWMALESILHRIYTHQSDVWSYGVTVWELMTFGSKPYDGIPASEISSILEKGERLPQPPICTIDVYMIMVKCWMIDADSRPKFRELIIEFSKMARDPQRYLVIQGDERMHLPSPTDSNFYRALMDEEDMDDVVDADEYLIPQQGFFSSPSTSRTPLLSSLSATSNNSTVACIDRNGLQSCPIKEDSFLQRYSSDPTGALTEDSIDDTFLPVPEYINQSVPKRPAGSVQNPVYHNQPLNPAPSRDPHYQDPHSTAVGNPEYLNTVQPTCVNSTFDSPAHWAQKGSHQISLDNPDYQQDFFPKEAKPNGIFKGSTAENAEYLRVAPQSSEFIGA
# SRPK1 (human), sequence (Q96SB4 whole entry, looked up): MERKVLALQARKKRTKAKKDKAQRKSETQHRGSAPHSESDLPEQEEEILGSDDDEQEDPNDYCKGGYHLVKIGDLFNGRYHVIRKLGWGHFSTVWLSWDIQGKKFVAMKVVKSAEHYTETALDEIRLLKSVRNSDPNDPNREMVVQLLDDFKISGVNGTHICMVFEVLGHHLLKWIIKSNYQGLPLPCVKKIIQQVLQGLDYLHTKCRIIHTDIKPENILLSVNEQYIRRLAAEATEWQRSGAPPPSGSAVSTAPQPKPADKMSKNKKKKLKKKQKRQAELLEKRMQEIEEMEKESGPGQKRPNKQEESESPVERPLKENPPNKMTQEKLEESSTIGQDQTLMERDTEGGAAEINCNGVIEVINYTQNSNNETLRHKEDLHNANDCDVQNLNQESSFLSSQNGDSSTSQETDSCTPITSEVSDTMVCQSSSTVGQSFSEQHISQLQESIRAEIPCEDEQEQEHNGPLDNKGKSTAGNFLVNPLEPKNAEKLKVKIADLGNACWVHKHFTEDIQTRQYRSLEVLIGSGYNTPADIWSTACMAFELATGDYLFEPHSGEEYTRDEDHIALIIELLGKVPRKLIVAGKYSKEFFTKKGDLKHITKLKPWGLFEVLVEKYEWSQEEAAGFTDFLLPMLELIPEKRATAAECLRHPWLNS
# MYO3B (human), sequence (Q8WXR4 whole entry, looked up): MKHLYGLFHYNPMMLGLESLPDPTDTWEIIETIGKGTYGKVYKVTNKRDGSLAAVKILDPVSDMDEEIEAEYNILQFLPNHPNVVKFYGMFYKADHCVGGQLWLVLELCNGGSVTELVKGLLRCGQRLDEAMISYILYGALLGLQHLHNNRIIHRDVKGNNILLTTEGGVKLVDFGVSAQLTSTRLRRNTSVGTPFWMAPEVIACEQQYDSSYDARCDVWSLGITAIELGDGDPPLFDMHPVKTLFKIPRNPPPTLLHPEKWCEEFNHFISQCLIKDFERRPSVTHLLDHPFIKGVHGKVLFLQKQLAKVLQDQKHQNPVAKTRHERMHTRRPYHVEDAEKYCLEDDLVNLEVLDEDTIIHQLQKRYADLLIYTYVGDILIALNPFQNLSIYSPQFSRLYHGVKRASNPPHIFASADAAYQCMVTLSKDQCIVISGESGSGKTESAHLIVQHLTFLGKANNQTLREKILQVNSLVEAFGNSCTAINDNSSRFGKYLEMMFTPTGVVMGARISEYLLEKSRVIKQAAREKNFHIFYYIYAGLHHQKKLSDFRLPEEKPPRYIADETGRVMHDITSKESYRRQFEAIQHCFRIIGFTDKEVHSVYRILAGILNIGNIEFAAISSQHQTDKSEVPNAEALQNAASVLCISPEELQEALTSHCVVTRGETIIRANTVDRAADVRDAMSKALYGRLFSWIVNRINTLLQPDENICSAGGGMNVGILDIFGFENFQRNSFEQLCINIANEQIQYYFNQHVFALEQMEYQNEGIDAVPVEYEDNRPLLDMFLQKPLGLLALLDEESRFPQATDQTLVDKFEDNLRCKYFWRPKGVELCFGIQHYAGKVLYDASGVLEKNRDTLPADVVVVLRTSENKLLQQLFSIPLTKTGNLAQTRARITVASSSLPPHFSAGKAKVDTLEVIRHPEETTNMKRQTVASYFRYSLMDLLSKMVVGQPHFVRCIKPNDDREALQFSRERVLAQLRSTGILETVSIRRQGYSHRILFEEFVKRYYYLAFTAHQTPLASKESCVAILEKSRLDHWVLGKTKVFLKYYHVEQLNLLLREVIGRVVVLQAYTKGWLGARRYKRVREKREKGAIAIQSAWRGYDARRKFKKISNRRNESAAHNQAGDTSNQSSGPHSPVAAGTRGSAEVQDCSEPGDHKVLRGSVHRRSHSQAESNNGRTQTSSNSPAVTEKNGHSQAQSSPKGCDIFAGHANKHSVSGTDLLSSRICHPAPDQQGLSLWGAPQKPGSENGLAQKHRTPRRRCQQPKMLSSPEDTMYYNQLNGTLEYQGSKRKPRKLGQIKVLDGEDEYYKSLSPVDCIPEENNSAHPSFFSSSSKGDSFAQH
# HIPK4 (human), sequence (Q8NE63 whole entry, looked up): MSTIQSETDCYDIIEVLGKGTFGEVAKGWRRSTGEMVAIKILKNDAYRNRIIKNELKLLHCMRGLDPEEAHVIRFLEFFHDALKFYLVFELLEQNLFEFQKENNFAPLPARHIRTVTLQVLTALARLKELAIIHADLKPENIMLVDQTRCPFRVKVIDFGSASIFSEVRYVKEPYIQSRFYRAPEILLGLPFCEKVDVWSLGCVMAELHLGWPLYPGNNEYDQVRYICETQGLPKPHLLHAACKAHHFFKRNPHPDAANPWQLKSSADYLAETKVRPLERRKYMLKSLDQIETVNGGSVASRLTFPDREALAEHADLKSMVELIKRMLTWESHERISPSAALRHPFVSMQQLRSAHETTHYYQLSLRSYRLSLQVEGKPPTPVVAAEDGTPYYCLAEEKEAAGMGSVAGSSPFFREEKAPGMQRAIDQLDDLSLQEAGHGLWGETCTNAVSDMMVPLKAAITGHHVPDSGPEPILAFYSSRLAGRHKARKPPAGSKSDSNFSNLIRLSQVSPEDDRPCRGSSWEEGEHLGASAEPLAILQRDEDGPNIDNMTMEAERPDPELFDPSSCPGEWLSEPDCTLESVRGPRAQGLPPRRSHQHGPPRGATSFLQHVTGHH
smiles,measurement,setting,value
Cc1cncc2cccc(S(=O)(=O)N3CCCN(C(=O)CN)C[C@H]3C)c12,residual activity,[1],98.9%
same,residual activity,[2],95.8%
same,residual activity,[3],94.2%
same,residual activity,[4],108%
same,residual activity,[5],94%
same,residual activity,[6],98%
same,residual activity,[7],104%
same,residual activity,[8],95.1%
same,residual activity,[9],103%
same,residual activity,[10],89%
same,residual activity,[11],98.7%
same,residual activity,[12],98.7%
same,residual activity,[13],95.1%
same,residual activity,[14],78.4%
same,residual activity,[15],99.6%
same,residual activity,[16],91.1%
same,residual activity,[17],97.2%
same,residual activity,[18],99%
same,residual activity,[19],98.4%
same,residual activity,[20],87.6%
same,residual activity,[21],107%
same,residual activity,[22],98.9%
same,residual activity,[23],101%
same,residual activity,[24],104%
same,residual activity,[25],100%
same,residual activity,[26],105%
same,residual activity,[27],99.6%
same,residual activity,[28],99.5%
same,residual activity,[29],105%
same,residual activity,[30],98.6%
same,residual activity,[31],96%
same,residual activity,[32],88.1%
same,residual activity,[33],90.4%
same,residual activity,[34],102%
same,residual activity,[35],103%
same,residual activity,[36],42%
same,residual activity,[37],97.1%
same,residual activity,[38],84.2%
same,residual activity,[39],96.2%
same,residual activity,[40],117%
same,residual activity,[41],132%
same,residual activity,[42],97.7%
COc1cc2ncnc(Nc3ccc(Oc4ccccc4)cc3)c2cc1OC,residual activity,[1],96.4%
same,residual activity,[2],93.7%
same,residual activity,[3],98.7%
same,residual activity,[4],97.2%
same,residual activity,[5],94%
same,residual activity,[6],98.5%
same,residual activity,[7],108%
same,residual activity,[8],99.9%
same,residual activity,[9],102%
same,residual activity,[10],99.5%
same,residual activity,[11],31.6%
same,residual activity,[12],101%
same,residual activity,[13],85.3%
same,residual activity,[14],8.79%
same,residual activity,[15],97%
same,residual activity,[16],91.8%
same,residual activity,[17],93.6%
same,residual activity,[18],92.1%
same,residual activity,[19],68.5%
same,residual activity,[20],90.5%
same,residual activity,[21],105%
same,residual activity,[22],108%
same,residual activity,[23],101%
same,residual activity,[24],103%
same,residual activity,[25],101%
same,residual activity,[26],111%
same,residual activity,[27],100%
same,residual activity,[28],98.3%
same,residual activity,[29],104%
same,residual activity,[30],92.6%
same,residual activity,[31],100%
same,residual activity,[32],98.3%
same,residual activity,[33],97.6%
same,residual activity,[34],113%
same,residual activity,[35],105%
same,residual activity,[36],74%
same,residual activity,[37],105%
same,residual activity,[38],105%
same,residual activity,[39],102%
same,residual activity,[40],43.3%
same,residual activity,[41],137%
same,residual activity,[42],107%
c1ccc2c(-c3ccncc3)c[nH]c2c1,residual activity,[1],91.9%
same,residual activity,[2],94.7%
same,residual activity,[3],90.3%
same,residual activity,[4],103%
same,residual activity,[5],92.6%
same,residual activity,[6],98.2%
same,residual activity,[7],101%
same,residual activity,[8],95%
same,residual activity,[9],108%
same,residual activity,[10],98.1%
same,residual activity,[11],97.3%
same,residual activity,[12],107%
same,residual activity,[13],99.4%
same,residual activity,[14],83.7%
same,residual activity,[15],103%
same,residual activity,[16],93.8%
same,residual activity,[17],94.8%
same,residual activity,[18],94.2%
same,residual activity,[19],95.2%
same,residual activity,[20],54.4%
same,residual activity,[21],104%
same,residual activity,[22],98%
same,residual activity,[23],96.2%
same,residual activity,[24],96.4%
same,residual activity,[25],101%
same,residual activity,[26],106%
same,residual activity,[27],95.1%
same,residual activity,[28],96.7%
same,residual activity,[29],101%
same,residual activity,[30],97.1%
same,residual activity,[31],95.7%
same,residual activity,[32],38.3%
same,residual activity,[33],93.8%
same,residual activity,[34],91%
same,residual activity,[35],108%
same,residual activity,[36],93.7%
same,residual activity,[37],109%
same,residual activity,[38],88.4%
same,residual activity,[39],103%
same,residual activity,[40],123%
same,residual activity,[41],119%
same,residual activity,[42],95.8%
